Measured values: EP4603105A1, “PHARMACEUTICAL COMPOSITION CONTAINING CYCLIC COMPOUND HAVING SELECTIVE KRAS INHIBITORY EFFECT AGAINST HRAS AND NRAS” (CHUGAI SEIYAKU KABUSHIKI KAISHA, priority 2022, dated 2024)
Read-outs that look alike come from different tables or passages of the source. *1 amine or outer side, *2 acyl side, *3 side chain or, on linkers, in order; H or OH if unused. Where a SMILES comes first, the peptide text is derived from it. Bridges are numbered along the chain shown (N, C = ends). [ ]: non-standard residue; d: D form. The star is where a group is joined. hPhe(3-Cl-4-CF3) = N[C@@H](CCc1ccc(C(F)(F)F)c(Cl)c1)C(=O)O; NPrPhe(4-CF3) = CCCN[C@@H](Cc1ccc(C(F)(F)F)cc1)C(=O)O; NEtPhe(4-Me) = CCN[C@@H](Cc1ccc(C)cc1)C(=O)O; NMeGly(cPent) = CN[C@H](C(=O)O)C1CCCC1; X9 = CC1(C)CN([*:1])[C@@H]1C(=O)[*:2]; Hyp = O=C(O)[C@@H]1C[C@@H](O)CN1; NMeI = CC[C@H](C)[C@H](NC)C(=O)O; NMeD = CN[C@@H](CC(=O)O)C(=O)O; NMeL = CN[C@@H](CC(C)C)C(=O)O; Morpholide = C1CN(*)CCO1; Ac5c = NC1(C(=O)O)CCCC1; Ac4c = NC1(C(=O)O)CCC1; NEtG = CCNCC(=O)O; Sar = CNCC(=O)O

Legend:
[1] = biological target: GDP-bound NRAS wild-type protein (Homo sapiens, UniProt P01111); experiment: Binding to NRAS by surface plasmon resonance (SPR), KD and KD ratio to KRAS
GDP-bound NRAS wild-type protein, sequence (P01111 whole entry): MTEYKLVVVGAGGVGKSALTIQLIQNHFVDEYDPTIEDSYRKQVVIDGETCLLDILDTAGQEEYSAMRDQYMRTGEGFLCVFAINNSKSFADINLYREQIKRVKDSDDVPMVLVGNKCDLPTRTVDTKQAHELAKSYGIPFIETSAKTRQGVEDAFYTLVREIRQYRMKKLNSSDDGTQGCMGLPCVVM
In short: (§1)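 SPR, 30°C: Avi-biotin RAS·GDP captured via Biotin CAPture (~100–300 RU); running buffer HBS pH 7.4, 1 mM DTT, 10 mM MgCl2, 0.01% Tween 20, 10 µM GDP, 4% DMSO. Single-cycle kinetics, 100 µL/min, 75 s injections; 1:1 model → KD.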

HRAS wild-type protein = HRAS wild-type protein (Homo sapiens, UniProt P01112); experiment: Binding to HRAS by surface plasmon resonance (SPR), KD and KD ratio to KRAS
HRAS wild-type protein, sequence (P01112 whole entry): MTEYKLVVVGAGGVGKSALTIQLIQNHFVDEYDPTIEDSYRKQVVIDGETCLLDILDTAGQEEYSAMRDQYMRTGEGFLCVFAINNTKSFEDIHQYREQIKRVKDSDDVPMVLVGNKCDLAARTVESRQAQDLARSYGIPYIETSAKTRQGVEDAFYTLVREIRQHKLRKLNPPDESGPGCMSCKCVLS
In short: as §1

[2] = tested on: human lung cancer strain NCI-H441; type: cell-based
In short: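 Proliferation was scored by […] measured after the reagent was added to cultures kept at 37°C in 5% carbon dioxide.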

[3] = ratio of KD for GDP-bound NRAS wild-type protein to KD for KRAS
[4] = ratio of KD for HRAS wild-type protein to KD for KRAS
[5] = NCI-H441 cells, 4 days, CellTiter-Glo, read-out: NCl-H441 IC50
[6] = ratio of the KD value with respect to GDP-bound NRAS wild-type protein to the KD value with respect to KRAS
[7] = ratio of the KD value with respect to HRAS wild-type protein to the KD value with respect to KRAS

| IC50 [2] [µM] | SMILES | NRAS /KRAS [1, 3] | HRAS /KRAS (HRAS wild-type protein; [4]) | IC50 [2, 5] [µM] | NRAS /KRAS [1, 6] | HRAS /KRAS (HRAS wild-type protein; [7]) | NRAS /KRAS ([1]; ratio of KD value for GDP-bound NRAS wild-type protein to KD value for KRAS (SPR)) | HRAS /KRAS (HRAS wild-type protein; ratio of KD value for HRAS wild-type protein to KD value for KRAS (SPR)) |
| --- | --- | --- | --- | --- | --- | --- | --- | --- |
| – | CCC[C@H]1C(=O)N[C@@H]([C@@H](C)CC)C(=O)N(C)CC(=O)N(C)[C@H]2C/C=C\CCN(C2=O)[C@@H](Cc2ccc(C(F)(F)F)cc2)C(=O)N(C)CC(=O)N[C@@H](CCc2cc(C)c(C3CC3)c(C)c2)C(=O)N2C[C@H](OCC)C[C@H]2C(=O)NC2(CC(C)(C)C2)C(=O)N(C)[C@@H](C2CCCC2)C(=O)N(C)[C@H](C(=O)N(C)C)CC(=O)N1C [PP2863] | A (a compound having 10 or more and less than 20 is denoted as A) | A (a compound having 10 or more and less than 20 is denoted as A) | 0.128 | – | – | – | – |
| 0.0204 | CC[C@H](C)[C@@H]1NC(=O)[C@H](CC(C)C)N(C)C(=O)C[C@@H](C(=O)N2CCOCC2)N(C)C(=O)[C@H]([C@@H](C)CC)N(C)C(=O)C2(CCCC2)NC(=O)[C@@H]2CCCN2C(=O)[C@H](CCc2ccc(C(F)(F)F)c(Cl)c2)NC(=O)CN(C)C(=O)[C@H](Cc2ccc(C)cc2)N(CC)C(=O)CN(C)C(=O)CN(C)C1=O [PP0043] ([NMeL]I[Sar][Sar][NEtPhe(4-Me)][Sar][hPhe(3-Cl-4-CF3)]P[Ac5c][NMeI][NMeD]-Morpholide; lactam N-11) | C (A compound having a KD ratio of 0.1 or more and less than 3 is denoted as C) | C (A compound having a KD ratio of 0.1 or more and less than 3 is denoted as C) | – | – | – | – | – |
| 0.078 | CC[C@H](C)[C@@H]1NC(=O)[C@H](CC(C)C)N(C)C(=O)C[C@@H](C(=O)N2CCOCC2)N(C)C(=O)[C@H](C2CCCC2)N(CC)C(=O)C2(CCCC2)NC(=O)[C@@H]2CCCN2C(=O)[C@H](CCc2cc(F)c(C(F)(F)F)c(F)c2)NC(=O)CN(C)C(=O)[C@H](Cc2ccc(C(F)(F)F)cc2)N2CCCC[C@@H](C2=O)N(C)C(=O)CN(C)C1=O [PP0538] | – | – | – | B (a compound having 3 or more and less than 10 is denoted as B) | B (a compound having 3 or more and less than 10 is denoted as B) | – | – |
| 0.0266 | CCCN1C(=O)CN(C)C(=O)[C@H]2N(CC2(C)C)C(=O)[C@H]([C@@H](C)CC)NC(=O)[C@H](CC(C)C)N(C)C(=O)C[C@@H](C(=O)N2CCOCC2)N(C)C(=O)[C@H](C2CCCC2)N(C)C(=O)C2(CCCC2)NC(=O)[C@@H]2CCCN2C(=O)[C@H](CCc2ccc(C(F)(F)F)c(Cl)c2)NC(=O)CN(C)C(=O)[C@@H]1Cc1ccc(C(F)(F)F)cc1 [PP0256] ([NMeL]I[X9][Sar][NPrPhe(4-CF3)][Sar][hPhe(3-Cl-4-CF3)]P[Ac5c][NMeGly(cPent)][NMeD]-Morpholide; lactam N-11) | B (a compound having 3 or more and less than 10 is denoted as B) | C (A compound having a KD ratio of 0.1 or more and less than 3 is denoted as C) | – | – | – | – | – |
| 0.0175 | CCO[C@@H]1C[C@H]2C(=O)NC3(CCCC3)C(=O)N(C)[C@@H](C3CCCC3)C(=O)N(C)[C@H](C(=O)N(C)C)CC(=O)N(C)[C@@H](CC)C(=O)N[C@@H]([C@@H](C)CC)C(=O)N(C)CC(=O)N(C)[C@H]3C[C@@H](C)CCN(C3=O)[C@@H](Cc3ccc(C(F)(F)F)cc3)C(=O)N(C)CC(=O)N[C@@H](CCc3cc(F)c(C(F)(F)F)c(F)c3)C(=O)N2C1 [PP1022] | C (A compound having a KD ratio of 0.1 or more and less than 3 is denoted as C) | B (a compound having 3 or more and less than 10 is denoted as B) | – | – | – | – | – |
| – | CCC[C@H]1C(=O)N[C@@H]([C@@H](C)CC)C(=O)N(C)CC(=O)N(C)[C@H]2C/C=C\CCN(C2=O)[C@@H](Cc2ccc(C(F)(F)F)cc2)C(=O)N(C)CC(=O)N[C@@H](CCc2cc(F)c(CC)c(OC)c2)C(=O)N2C[C@H](OCC)C[C@H]2C(=O)NC2(CC(C)(C)C2)C(=O)N(C)[C@@H](C2CCCC2)C(=O)N(C)[C@H](C(=O)N(C)C)CC(=O)N1C [PP2862] | A (a compound having 10 or more and less than 20 is denoted as A) | B (a compound having 3 or more and less than 10 is denoted as B) | 0.0363 | – | – | – | – |
| 0.0529 | CCO[C@@H]1C[C@H]2C(=O)NC3(CC(C)(C)C3)C(=O)N(C)[C@@H](C(CC)CC)C(=O)N(C)[C@H](C(=O)N(C)C)CC(=O)N(C)[C@@H](CC(C)C)C(=O)N[C@@H]([C@@H](C)CC)C(=O)N(C)CC(=O)N(C)[C@H]3C/C=C\CCN(C3=O)[C@@H](Cc3ccc(C(F)(F)F)cc3)C(=O)N(C)CC(=O)N[C@@H](CCc3ccc(Cl)c(Cl)c3)C(=O)N2C1 [PP2176] | – | – | – | AA (a compound having 20 or more is denoted as AA) | A (a compound having 10 or more and less than 20 is denoted as A) | – | – |
| 0.0266 | CC[C@H](C)[C@@H]1NC(=O)[C@H](CCOC)N(C)C(=O)C[C@@H](C(=O)N(C)CC)N(C)C(=O)[C@H](C2CCCC2)N(C)C(=O)C2(CC(C)(C)C2)NC(=O)[C@@H]2C[C@H](C)CN2C(=O)[C@H](CCc2ccc(C(F)(F)F)c(OC)c2)NC(=O)CN(C)C(=O)[C@H](Cc2ccc(C(F)(F)F)cc2)N2CC/C=C\C[C@@H](C2=O)N(C)C(=O)CN(C)C1=O [PP1999] | – | – | – | A (a compound having 10 or more and less than 20 is denoted as A) | B (a compound having 3 or more and less than 10 is denoted as B) | – | – |
| 0.0342 | CCCN1C(=O)CN(C)C(=O)CN(CC)C(=O)[C@H]([C@@H](C)CC)NC(=O)[C@H](CC(C)C)N(C)C(=O)C[C@@H](C(=O)N(C)C)NC(=O)[C@H](C2CCCC2)N(C)C(=O)C2(CCC2)NC(=O)[C@@H]2C[C@@H](OCC)CN2C(=O)[C@H](CCc2ccc(C(F)(F)F)c(Cl)c2)NC(=O)CN(C)C(=O)[C@@H]1Cc1ccc(C(F)(F)F)cc1 [PP0372] ([NMeL]I[NEtG][Sar][NPrPhe(4-CF3)][Sar][hPhe(3-Cl-4-CF3)][Hyp](Et)[Ac4c][NMeGly(cPent)]D-NMe2; lactam N-11) | B (a compound having 3 or more and less than 10 is denoted as B) | B (a compound having 3 or more and less than 10 is denoted as B) | – | – | – | – | – |
| 0.0063 | CC[C@H](C)[C@@H]1NC(=O)[C@H](CC(C)C)N(C)C(=O)C[C@@H](C(=O)N2CCOCC2)N(CC)C(=O)[C@H](C2CCCC2)N(C)C(=O)C2(CCCC2)NC(=O)[C@@H]2CCCN2C(=O)[C@H](CCc2cc(F)c(C(F)(F)F)c(F)c2)NC(=O)CN(C)C(=O)[C@H](Cc2ccc(C(F)(F)F)cc2)N2CCCC[C@@H](C2=O)N(C)C(=O)CN(C)C1=O [PP0539] | – | – | – | B (a compound having 3 or more and less than 10 is denoted as B) | B (a compound having 3 or more and less than 10 is denoted as B) | – | – |
| 0.0238 | CC[C@H](C)[C@@H]1NC(=O)[C@H](CC2CC2)N(C)C(=O)C[C@@H](C(=O)N(C)C)N(C)C(=O)[C@H](C2CCCC2)N(C)C(=O)C2(CCC2)NC(=O)[C@@H]2[C@@H](OCC(F)F)CCN2C(=O)[C@H](CCc2cc(F)c(C(F)(F)F)c(F)c2)NC(=O)CN(C)C(=O)[C@H](Cc2ccc(C(F)(F)F)cc2)N2CC/C=C\C[C@@H](C2=O)N(C)C(=O)CN(C)C1=O [PP1533] | – | – | – | – | – | AA (a compound having 20 or more is denoted as AA) | A (a compound having 10 or more and less than 20 is denoted as A) |
| 0.0148 | CCO[C@@H]1C[C@H]2C(=O)NC3(CC(C)(C)C3)C(=O)N(C)[C@@H](C(CC)CC)C(=O)N(C)[C@H](C(=O)N3CCCC3)CC(=O)N(C)[C@@H](COC)C(=O)N[C@@H]([C@@H](C)CC)C(=O)N(C)CC(=O)N(C)[C@H]3C/C=C\CCN(C3=O)[C@@H](Cc3ccc(C(F)(F)F)cc3)C(=O)N(C)CC(=O)N[C@@H](CCc3ccc(C(F)(F)F)c(Cl)c3)C(=O)N2C1 [PP2128] | – | – | – | AA (a compound having 20 or more is denoted as AA) | A (a compound having 10 or more and less than 20 is denoted as A) | – | – |
